Experiments:
[1] = tested on: human colon cancer cells (HCT116); test: Cytotoxicity, MTT assay, HCT116; assay type: cell-based
Description: (§1) Compounds 83–102 were screened against human neoplastic cell lines, such as human breast cancer cells (MCF-7), human colon cancer cells (HCT116), human lung carcinoma cells (A549), human gastric adenocarcinoma cells (SGC7901), human liver hepatocellular carcinoma cell line (HepG2), human cervical carcinoma cells (HeLa), human acute mononuclear granulocyte leukaemia (THP-1), and human normal hepatic cell line (LO2) using modified MTT assay. All the cells were obtained from the American Type Culture Collection (ATCC, Manassas, VA). The cells were cultured in DMEM or 1640. Positive controls (Doxorubicin (DOX) and Curcumin) and BAPs were initially dissolved in dimethyl sulphoxide (DMSO). Experimental concentration of DMSO was always 0.1% (v/v). The concentrations of BAPs and positive controls were 50, 20, 10, 5, 2.5, 1, 0.5, 0.1, 0.05, and 0.01 μg/mL.
(§2) The cells (1 × 10^4 cells/well) were seeded in a 96-well plate and incubated for 24 h. Cells treated with serial concentrations of drugs were incubated for another 24 h. After the media removed, 20 μL of MTT (5 mg/mL) solution was added and incubated for 4 h at 37 °C. The MTT solution was removed and then 150 μL of DMSO was added. The optical density was measured with a multi-well plate reader (TECAN, Mӓnnedorf, Switzerland) at 570 nm. The results are expressed as a decrease in the cell viability (%) in comparison to untreated controls. The concentration of each compound was examined in triplicate, and the IC50 values are expressed in Table 1.

[2] = tested on: human normal hepatic cell line (LO2); test: Toxicity to normal cells, MTT assay, LO2; assay type: cell-based; details: Homo sapiens, 24 h
Description: as §1, §2

[3] = tested on: Bcl-2 expression in HepG2 cells; test: Western blot, Bcl-2 expression in HepG2 cells; assay type: cell-based, human; details: HepG2, 1.0, 2.0, and 4.0 μM
Description: (§3) The HepG2 cells were treated with BAP 96 at different concentrations (1.0, 2.0, and 4.0 µM) for 3 h, and washed twice by PBS. The cells were lysed and the extracted proteins of cell lysates were separated by 10% SDS-PAGE gel electrophoresis, then transferred onto polyvinylidene fluorides membranes. The membranes were probed with antibodies and visualized using an enhanced chemiluminescence (ECL) detection kit.

[4] = tested on: p-p65 in LPS-stimulated RAW264.7 cells; test: LPS-stimulated phosphorylation of p65 in RAW264.7 cells; assay type: cell-based; details: RAW264.7, 1.0, 2.0, 4.0 μM
Description: as §3
(§4) It is known that NF-κB has been implicated in the crossroad of inflammation and cancer[25]^,[26]. In our previous study, some BAPs (such as 23 and 67) could inhibit NF-κB activation by inhibiting the phosphorylation of NF-κB (P65) and IκB[13]^,[14]. Herein, it is an urgent to resolve whether 96 has the same mechanism of action as 23 and 67. Therefore, the RAW264.7 cells were pretreated with LPS, and then treated with different concentrations (1.0, 2.0, 4.0 μM) of 96. […] Similarly, the HepG2 cells were pretreated with TNF-α, then treated with different concentrations (1.0, 2.0, and 4.0 μM) of 96.

[5] = tested on: p-p65 in TNF-α-stimulated HepG2 cells; test: TNF-α-stimulated phosphorylation of p65 in HepG2 cells; assay type: cell-based, human; details: HepG2, 1.0, 2.0, and 4.0 μM
Description: as §3, §4

[6] = tested on: NF-κB p65 nuclear translocation in TNF-α-stimulated HepG2 cells; test: NF-κB p65 nuclear translocation, immunofluorescence, HepG2; assay type: cell-based, human; details: HepG2, TNF-α 10 ng/mL, 4.0 μM
Description: RAW264.7 cells were pretreated in 96-well plates with LPS (1 μg/mL) for 15 min and then treated with 96 for 2 h. Similarly, HepG2 cells were pretreated with TNF-α (10 ng/mL) for 15 min and then treated with 96 for 4 h. The cells were fixed with 2% paraformaldehyde for 15 min at 37 °C and permeabilized using 0.1% Triton X-100 for 10 min at RT. After blockage with 3% BSA for 30 min, the cells were incubated with anti-NF-κB p65 antibody (NOVUS BIOLOGICALS, Colorado, USA) at 4 °C overnight. After washing, the anti-mouse Alexa488-conjugated secondary antibody (Jackson Immuno Research, West Grove, PA) was incubated for 30 min at RT. After washed with PBS, the cells were incubated in 4-6-diamidino-2-phenyindole (DAPI; Sigma, St. Louis, MO) for 15 min in the dark at RT. The cell images were simultaneously viewed using a microscopy system in High Throughput Screen (Operetta, PerkinElmer, Waltham, MA).

HepG2 xenografts = HepG2 xenografts growth in nude mice; assay type: in vivo, Balb/c nude mice
Description: (§5) The HepG2 cells xenografts were established using the Balb/c nude mice (female, 7-week-old, 17–19 g, n = 30) (Shanghai Laboratory Animal Center, Shanghai Shi, China) were used to investigate the anti-hepatoma effect of 96. Animal experiments were reviewed and approved by the Binzhou Medical University Experimental Animal Committee. Briefly, HepG2 cells (1 × 10^7/0.2 ml PBS/mouse) were inoculated subcutaneously. Three days after the inoculation, the mice were randomly divided into five groups: the saline treated group (Control), 96 (0.2 mg/kg) group, 96 (1.0 mg/kg) treated group, 96 (5.0 mg/kg) treated group, and DOX (1.0 mg/kg) treated group. 96 were dissolved in saline containing 1% of DMSO and administered intraperitoneally every 2 d for 20 days. DOX was also administered intraperitoneally every 2 d for 20 d. The body weight and HepG2 xenografts volumes were recorded from the day of treatment, and xenografts volumes were calculated using the equation: tumour volume = length×(width)[2]×π/6. At the end of the experiment, mice were sacrificed and the xenografts were obtained for western blotting, HE staining and immunohistochemistry staining.

[7] = tested on: C-caspase-3 expression in HepG2 xenografts; test: Western blot, C-caspase-3 in HepG2 xenografts; assay type: in vivo, Balb/c nude mice; details: 0.2, 1.0 and 5.0 mg/kg
Description: as §5
Western blotting was performed to detect the expression of Bcl-2, Bax and C-caspase-3 in HepG2 xenografts. Fresh HepG2 xenografts tissues were lysed and the obtained proteins were processed as the protein obtained from the HepG2 cells.

[8] = tested on: Bcl-2 expression in HepG2 xenografts; test: Immunohistochemistry staining of Bcl-2 in HepG2 xenografts; assay type: in vivo, Balb/c nude mice; details: 96 5.0 mg/kg, DOX 1.0 mg/kg, versus model group
Description: as §5
The HepG2 xenografts tissues were embedded using the paraffin, and sectioned for HE staining and immunohistochemistry staining. HE staining was performed routinely. The immunohistochemistry staining carried out as following. […]

CN1CC(=Cc2cccc(N=Cc3cc(Br)ccc3O)c2)C(=O)C(=Cc2ccccc2F)C1 [Compound 96]
IC50 ([1]; Homo sapiens, HCT-116, MTT, 24 h): 2.5 ± 0.1 µM | HCT116 SI (selectivity index) ([1]; quotient of IC50 towards LO2 cells): 8.0 | IC50 [2]: 19.9 ± 0.4 µM | Expression of anti-apoptotic protein Bcl-2 [3]: decreased in a dose-dependent manner | Expression level of LPS-induced p-p65 [4]: effectively decreased in a dose-dependent manner | Phosphorylation of p65 induced by TNF-α [5]: dose-dependent downward trend | p65 nuclear translocation [6]: prevented the p65 nuclear translocation | Growth of HepG2 xenografts (HepG2 xenografts; 0.2 mg/kg intraperitoneally every 2 d for 20 days): slightly decreased the growth of HepG2 xenografts | Growth of HepG2 xenografts (HepG2 xenografts; 1.0 mg/kg intraperitoneally every 2 d for 20 days): slightly decreased the growth of HepG2 xenografts | Growth of HepG2 xenografts (HepG2 xenografts; 5.0 mg/kg intraperitoneally every 2 d for 20 days): significantly inhibited the growth of HepG2 xenografts | Expression of C-caspase-3 in HepG2 xenografts [7]: significantly increased in a dose-dependent manner | Bcl-2 expression, immunohistochemistry [8]: significantly reduced

Source: article PMC6691761, “Potential multifunctional agents with anti-hepatoma and anti-inflammation properties by inhibiting NF-кB activation” (Journal of Enzyme Inhibition and Medicinal Chemistry, 2019)
